# Reference: patent publication US20260144805A1, “CANNABIDIOL COMPOSITIONS FOR USE IN THE TREATMENT OF NEURODEGENERATIVE AND NEUROLOGICAL DISORDERS” (JAZZ PHARMACEUTICALS RESEARCH UK LIMITED, priority 2022, published 2026)
# What was measured:
# Assay type in all cases: in vivo
# [1] = tested on: valproic acid-induced autism spectrum disorder (ASD) mouse model; test: Valproic acid-induced ASD model, autism-like behaviors, DS vs sCBD and risperidone (Example 6, Table P); parameters: key to Adult open field hyperactivity (spontaneous LMA on day 1) / Adult open field hyperactivity (LMA on day 2) / Adult marble burying / Adult grooming / Juvenile vocalisation: +: improvement; Ø: no change; −: not tested
# Source text: (§1) The main objective of the following study was to assess the effect of the drug substance (DS) of Example 1 in ameliorating autism-like behavior in valproic acid-induced autism spectrum disorder (ASD) mouse model (FIGS. 19A-B).
# [2] = tested on: rat model of essential tremor; test: Harmaline rat model of essential tremor, tremor plate: motion power percentage, tremor index, number of tremors, time in tremor, tremor length (Example 4); parameters: key to Motion Power Percentage, significance vs harmaline + vehicle / Number of tremors, significance vs harmaline + vehicle / Total time in tremor, significance vs harmaline + vehicle / Average tremor length, significance vs harmaline + vehicle: ns = not significant; *, **, ***, **** = statistical significance at p < 0.05, 0.01, 0.001, 0.0001 respectively; *, **, ***, **** = statistical significance at p < 0.05, 0.01, 0.001, 0.0001 respectively; *, **, ***, **** = statistical significance at p < 0.05, 0.01, 0.001, 0.0001 respectively; *, **, ***, **** = statistical significance at p < 0.05, 0.01, 0.001, 0.0001 respectively; settings: for Average tremor length, significance vs harmaline + vehicle / Number of tremors, significance vs harmaline + vehicle / Total time in tremor, significance vs harmaline + vehicle / Motion Power Percentage, significance vs harmaline + vehicle: I.P.
# Source text: (§2) The following study was designed to assess the drug substance (DS) efficacy in the rat model of essential tremor. Synthetic CBD (sCBD I.P.) and DS I.P. and DS. P.O and compared observing tremor score, motion power percentage (MPP), tremor index (TI), number of tremors, total time spent in tremor, and average tremor length.
# (§3) The results are summarized in Tables J-M. All comparisons were made to the harmaline+vehicle group within each study.
# [3] = tested on: rat model of essential tremor; test: Harmaline rat model of essential tremor, observed tremor score (Example 4); parameters: key to Observed tremor score, significance vs harmaline + vehicle: ns = not significant; *, **, ***, **** = statistical significance at p < 0.05, 0.01, 0.001, 0.0001 respectively; *, **, ***, **** = statistical significance at p < 0.05, 0.01, 0.001, 0.0001 respectively; *, **, ***, **** = statistical significance at p < 0.05, 0.01, 0.001, 0.0001 respectively; *, **, ***, **** = statistical significance at p < 0.05, 0.01, 0.001, 0.0001 respectively; settings: for Observed tremor score, significance vs harmaline + vehicle: I.P.
# Source text: as §2, §3
# [4] = tested on: valproic acid-induced autism spectrum disorder (ASD) mouse model; test: Valproic acid-induced ASD model, social behavior (Example 6, Table P); parameters: key: +: improvement; Ø: no change; −: not tested
# Source text: as §1
# [5] = tested on: valproic acid-induced autism spectrum disorder (ASD) mouse model; test: Valproic acid-induced ASD model, bottle-brush test (irritability) (Example 6, Table P); parameters: key: +: improvement; Ø: no change; −: not tested
# Source text: as §1
smiles,measurement,setting,value
"C=C(C)[C@@H]1CCC(C)=C[C@H]1c1c(O)cc(CCCCC)cc1O [sCBD, 2-[(1R,6R)-3-Methyl-6-(1-methylethenyl)-2-cyclohexen-1-yl]-5-pentyl-1,3-benzenediol]",Adult grooming,[1]; 9.21 mg/kg I.P.,+
same,Adult marble burying,[1]; 9.21 mg/kg I.P.,Ø
same,Adult open field hyperactivity (LMA on day 2),[1]; 9.21 mg/kg I.P.,Ø
same,Adult open field hyperactivity (spontaneous LMA on day 1),[1]; 9.21 mg/kg I.P.,+
same,Adult grooming,[1]; 27.63 mg/kg I.P.,+
same,Adult marble burying,[1]; 27.63 mg/kg I.P.,+
same,Adult open field hyperactivity (LMA on day 2),[1]; 27.63 mg/kg I.P.,+
same,Adult open field hyperactivity (spontaneous LMA on day 1),[1]; 27.63 mg/kg I.P.,+
same,Adult grooming,[1]; 92.11 mg/kg I.P.,+
same,Adult marble burying,[1]; 92.11 mg/kg I.P.,+
same,Adult open field hyperactivity (LMA on day 2),[1]; 92.11 mg/kg I.P.,+
same,Adult open field hyperactivity (spontaneous LMA on day 1),[1]; 92.11 mg/kg I.P.,+
same,Juvenile vocalisation,[1]; 92.11 mg/kg I.P.,+
same,minimum effective dose in social behavior and after the bottle-brush test (irritability),[1]; i.p.,92.11 mg/kg
same,"Average tremor length, significance vs harmaline + vehicle",[2]; dose 9.1 mg/kg,ns
same,"Number of tremors, significance vs harmaline + vehicle",[2]; dose 9.1 mg/kg,ns
same,"Total time in tremor, significance vs harmaline + vehicle",[2]; dose 9.1 mg/kg,ns
same,"Motion Power Percentage, significance vs harmaline + vehicle","[2]; dose 9.1 mg/kg, 20 min",ns
same,"Motion Power Percentage, significance vs harmaline + vehicle","[2]; dose 9.1 mg/kg, 40 min",ns
same,"Motion Power Percentage, significance vs harmaline + vehicle","[2]; dose 9.1 mg/kg, 60 min",ns
same,"Average tremor length, significance vs harmaline + vehicle",[2]; dose 27.3 mg/kg,ns
same,"Number of tremors, significance vs harmaline + vehicle",[2]; dose 27.3 mg/kg,ns
same,"Total time in tremor, significance vs harmaline + vehicle",[2]; dose 27.3 mg/kg,ns
same,"Motion Power Percentage, significance vs harmaline + vehicle","[2]; dose 27.3 mg/kg, 20 min",ns
same,"Motion Power Percentage, significance vs harmaline + vehicle","[2]; dose 27.3 mg/kg, 40 min",ns
same,"Motion Power Percentage, significance vs harmaline + vehicle","[2]; dose 27.3 mg/kg, 60 min",ns
same,"Average tremor length, significance vs harmaline + vehicle",[2]; dose 54.7 mg/kg,ns
same,"Number of tremors, significance vs harmaline + vehicle",[2]; dose 54.7 mg/kg,ns
same,"Total time in tremor, significance vs harmaline + vehicle",[2]; dose 54.7 mg/kg,ns
same,"Motion Power Percentage, significance vs harmaline + vehicle","[2]; dose 54.7 mg/kg, 20 min",ns
same,"Motion Power Percentage, significance vs harmaline + vehicle","[2]; dose 54.7 mg/kg, 40 min",ns
same,"Motion Power Percentage, significance vs harmaline + vehicle","[2]; dose 54.7 mg/kg, 60 min",ns
same,"Average tremor length, significance vs harmaline + vehicle",[2]; dose 91.1 mg/kg,ns
same,"Number of tremors, significance vs harmaline + vehicle",[2]; dose 91.1 mg/kg,ns
same,"Total time in tremor, significance vs harmaline + vehicle",[2]; dose 91.1 mg/kg,ns
same,"Motion Power Percentage, significance vs harmaline + vehicle","[2]; dose 91.1 mg/kg, 20 min",ns
same,"Motion Power Percentage, significance vs harmaline + vehicle","[2]; dose 91.1 mg/kg, 40 min",ns
same,"Motion Power Percentage, significance vs harmaline + vehicle","[2]; dose 91.1 mg/kg, 60 min","* (*, **, ***, **** = statistical significance at p < 0.05, 0.01, 0.001, 0.0001 respectively)"
same,Dose (as CBD) from which MPP and TI were significantly reduced,"[2]; intraperitoneal, sCBD only at one time point (60 min)",91 mg/kg
same,Minimum dose (as CBD) decreasing the observed tremor score,"[3]; DS oral and intraperitoneal, sCBD i.p.",27 mg/kg
same,"Observed tremor score, significance vs harmaline + vehicle","[3]; dose 9.1 mg/kg, 20 min",ns
same,"Observed tremor score, significance vs harmaline + vehicle","[3]; dose 9.1 mg/kg, 40 min",ns
same,"Observed tremor score, significance vs harmaline + vehicle","[3]; dose 9.1 mg/kg, 60 min",ns
same,"Observed tremor score, significance vs harmaline + vehicle","[3]; dose 27.3 mg/kg, 20 min",ns
same,"Observed tremor score, significance vs harmaline + vehicle","[3]; dose 27.3 mg/kg, 40 min","* (*, **, ***, **** = statistical significance at p < 0.05, 0.01, 0.001, 0.0001 respectively)"
same,"Observed tremor score, significance vs harmaline + vehicle","[3]; dose 27.3 mg/kg, 60 min","* (*, **, ***, **** = statistical significance at p < 0.05, 0.01, 0.001, 0.0001 respectively)"
same,"Observed tremor score, significance vs harmaline + vehicle","[3]; dose 54.7 mg/kg, 20 min","** (*, **, ***, **** = statistical significance at p < 0.05, 0.01, 0.001, 0.0001 respectively)"
same,"Observed tremor score, significance vs harmaline + vehicle","[3]; dose 54.7 mg/kg, 40 min","* (*, **, ***, **** = statistical significance at p < 0.05, 0.01, 0.001, 0.0001 respectively)"
same,"Observed tremor score, significance vs harmaline + vehicle","[3]; dose 54.7 mg/kg, 60 min","* (*, **, ***, **** = statistical significance at p < 0.05, 0.01, 0.001, 0.0001 respectively)"
same,"Observed tremor score, significance vs harmaline + vehicle","[3]; dose 91.1 mg/kg, 20 min","* (*, **, ***, **** = statistical significance at p < 0.05, 0.01, 0.001, 0.0001 respectively)"
same,"Observed tremor score, significance vs harmaline + vehicle","[3]; dose 91.1 mg/kg, 40 min",ns
same,"Observed tremor score, significance vs harmaline + vehicle","[3]; dose 91.1 mg/kg, 60 min",ns
same,Adult active social behavior,[4]; 9.21 mg/kg I.P.,Ø
same,Juvenile play behavior,[4]; 9.21 mg/kg I.P.,Ø
same,Adult active social behavior,[4]; 27.63 mg/kg I.P.,Ø
same,Juvenile play behavior,[4]; 27.63 mg/kg I.P.,Ø
same,Adult active social behavior,[4]; 92.11 mg/kg I.P.,+
same,Juvenile play behavior,[4]; 92.11 mg/kg I.P.,+
same,Adult bottle brush irritability test,[5]; 9.21 mg/kg I.P.,Ø
same,Juvenile bottle brush irritability test,[5]; 9.21 mg/kg I.P.,Ø
same,Adult bottle brush irritability test,[5]; 27.63 mg/kg I.P.,Ø
same,Juvenile bottle brush irritability test,[5]; 27.63 mg/kg I.P.,+
same,Adult bottle brush irritability test,[5]; 92.11 mg/kg I.P.,+
same,Juvenile bottle brush irritability test,[5]; 92.11 mg/kg I.P.,+
